Consider four molecules from patent publication US20100233093A1, “Magnetic resonance imaging contrast agent with paramagnetic-inositol phosphates complexes” (GACHON UNIVERSITY OF MEDICINE & SCIENCE INDUSTRY-ACADEMIC …, priority 2009, published 2010).

Each structure is given as a SMILES string. Several values for one entry are separate records, joined by “and”; a condition that tells them apart may be missing. Equal values may be shown once.

The nature of data set [1]: Stability constant (K) from thermodynamic parameters of ITC analysis. It is filed as physicochemical. Particulars: calculated from ΔG of ITC analysis. The source says: A stability constant (formation constant, binding constant) is an equilibrium constant for the formation of a complex in solution. It is a measure of the strength of the interaction between the reagents that come together to form the complex. The thermodynamics of metal ion complex formation provides much significant information. The chelate effect, below, is best explained in terms of thermodynamics. An equilibrium constant is related to the standard Gibbs free energy change for the reaction.

Data set [2] can be described thus: ITC analysis of Gd^3+ binding to EDTA. Particulars: higher affinity than EDTA. Background: ITC needs no label: the signal is the heat of the interaction.
A short description of data set [3]: ITC analysis of Ca^2+ binding to phytate. Particulars: Ca^2+ stronger than Mg^2+.

As to `O=C([O-])CN1CCN(CC(=O)[O-])CCN(CC(=O)O)CCN(CC(=O)[O-])CC1.[Gd+3]` [Gd-DOTA], in data set [1], the “Stability Constant (K)” value was 1.3e+29 M⁻¹.

For `O=C([O-])CN(CCN(CC(=O)[O-])CC(=O)O)CCN(CC(=O)[O-])CC(=O)O.[Gd+3]` [Gd-DTPA], the “Stability Constant (K)” value in data set [1] is 1.2e+28 M⁻¹.

With `O=C([O-])CN(CCN(CC(=O)[O-])CC(=O)[O-])CC(=O)[O-].[Gd+3]` [Gd-EDTA], the “Stability Constant (K)” value in data set [1] was 4.4e+29 M⁻¹.

With `O=P(O)(O)OC1C(OP(=O)(O)O)C(OP(=O)(O)O)C(OP(=O)(O)O)C(OP(=O)(O)O)C1OP(=O)(O)O` (centres unmarked) [phytate], the “affinity for Gd^3+ relative to EDTA” value in data set [2] is 10 fold and 10- to 100 fold. In data set [3], the “binding affinity for Ca^2+ relative to Mg^2+” value was determined as 100 fold.
